# In ChEMBL document CHEMBL2396587, “Synthesis, in vitro, and in cell studies of a new series of [indoline-3,2'-thiazolidine]-based p53 modulators” (J Med Chem, 2013):
# Activity calls are given as the source filed them. The calls are words filed in the database; no cut-off is given here.
# Assays:
# MCF7 [1] = assay: cells; details: Homo sapiens, MCF7, 24 h
# Description: Cytotoxicity against human MCF7 cells after 24 hrs by MTT assay
# HT-29 = assay: Cytotoxicity against human HT-29 cells after 24 hrs by MTT assay; type: functional, cell-based; details: HT-29, 24 h
# MCF7 [2] = assay: Induction of apoptosis in human MCF7 cells assessed as increase in p27 expression level at 50 nM by Western blotting analysis; type: functional, cell-based; details: TDE = time-dependent effect
# MCF7 [3] = assay: Induction of apoptosis in human MCF7 cells assessed as increase in p21 expression level at 50 nM by Western blotting analysis; type: functional, cell-based; details: TDE = time-dependent effect
# MCF7 [4] = assay: Induction of apoptosis in human MCF7 cells assessed as accumulation of caspase-3 cleavage product at 50 nM after 24 to 72 hrs by Western blotting analysis
# [5] = Ratio of Doxorubicin IC50 to compound IC50 against human Calu cells; type: functional
# MCF7 [6] = assay: Induction of apoptosis in human MCF7 cells assessed as increase in Bcl-xS expression level at 50 nM after 24 to 72 hrs by Western blotting analysis; type: functional, cell-based
# [7] = target: T1, Tumour suppressor p53/oncoprotein Mdm2 (Homo sapiens) (UniProt P04637+Q00987); assay: Inhibition of MDM2-p53 interaction in human MCF7 cells assessed as reduction in p53 level bound to MDM2 after 24 to 48 hrs by immunoprecipitation assay; type: cell-based
# [8] = target: T1, Tumour suppressor p53/oncoprotein Mdm2 (Homo sapiens); assay: Inhibition of MDM2-p53 interaction in human MCF7 cells after 72 hrs by immunoprecipitation assay; type: cell-based
# MCF7 [9] = assay: Induction of apoptosis in human MCF7 cells assessed as cytochrome C release at 50 nM after 72 hrs by Western blotting analysis; type: functional, cell-based
# MCF7 [10] = assay: Induction of apoptosis in human MCF7 cells assessed as early apoptotic cells at 50 nM after 72 hrs by annexin V-FITC/propidium iodide staining based FACS flow cytometry (reference value: 4 %); type: functional
# MCF7 [11] = assay: Cell cycle arrest in human MCF7 cells assessed as accumulation at G1 phase at 50 nM after 24 to 72 hrs by propidium iodide staining-based FACS analysis relative to control; type: functional
# MCF7 [12] = assay: Induction of apoptosis in human MCF7 cells assessed as increase in p53 expression level at 50 nM by Western blotting analysis; type: functional, cell-based; details: TDE = time-dependent effect
# [13] = target: T1, Tumour suppressor p53/oncoprotein Mdm2 (Homo sapiens); assay: Inhibition of MDM2-p53 interaction in human MCF7 cells assessed as MDM2 accumulation at 50 nM after 24 to 72 hrs by Western blot analysis; type: cell-based
# MCF7 [14] = assay: Cell cycle arrest in human MCF7 cells assessed as accumulation at S phase at 50 to 5000 nM after 24 hrs by propidium iodide staining-based FACS analysis relative to control; type: functional
# MCF7 [15] = assay: Induction of apoptosis in human MCF7 cells assessed as accumulation at subG1 phase at 50 nM by propidium iodide staining-based FACS analysis; type: functional, cell-based; details: TDE = time-dependent effect
# [16] = Cytotoxicity against human Calu cells after 24 hrs by MTT assay; type: functional, cell-based
# MCF7 [17] = assay: Cell cycle arrest in human MCF7 cells assessed as accumulation at G1 phase at 50 to 5000 nM after 24 hrs by propidium iodide staining-based FACS analysis relative to control; type: functional
# [18] = target: T1, Tumour suppressor p53/oncoprotein Mdm2 (Homo sapiens); assay: Inhibition of MDM2-p53 interaction in human MCF7 cells assessed as p53 accumulation at 50 nM after 24 to 72 hrs by Western blot analysis; type: cell-based
# MCF7 [19] = assay: Cell cycle arrest in human MCF7 cells assessed as accumulation at S phase at 50 nM after 24 to 72 hrs by propidium iodide staining-based FACS analysis relative to control; type: functional
# MCF7 [20] = assay: Cell cycle arrest in human MCF7 cells assessed as accumulation at G2M phase at 50 to 5000 nM after 24 hrs by propidium iodide staining-based FACS analysis relative to control; type: functional
# [21] = Cytotoxicity against human C643 cells after 24 hrs by MTT assay; details: C643, 24 h
# [22] = Cytotoxicity against human HGF cells after 24 hrs by MTT assay; type: cell-based
# MCF7 [23] = assay: Induction of apoptosis in human MCF7 cells assessed as reduction in Bcl-xL expression level at 50 nM after 24 to 72 hrs by Western blotting analysis; type: functional, cell-based
# MCF7 [24] = assay: Induction of apoptosis in human MCF7 cells assessed as early apoptotic cells at 50 nM after 48 hrs by annexin V-FITC/propidium iodide staining based FACS flow cytometry (reference value: 4 %); type: functional
# PC-3 = assay: cells; details: Homo sapiens, PC-3, 24 h
# Description: Cytotoxicity against human PC3 cells after 24 hrs by MTT assay
# MCF7 [25] = assay: Cell cycle arrest in human MCF7 cells assessed as accumulation at G2M phase at 50 nM after 24 to 72 hrs by propidium iodide staining-based FACS analysis relative to control; type: functional
# U-937 = assay: Cytotoxicity against human U937 cells after 24 hrs by MTT assay; type: functional, cell-based; details: U-937, 24 h
# HepG2 = assay: cells; details: Homo sapiens, HepG2, 24 h
# Description: Cytotoxicity against human HepG2 cells after 24 hrs by MTT assay
# T1 sequence (P04637 whole entry, looked up): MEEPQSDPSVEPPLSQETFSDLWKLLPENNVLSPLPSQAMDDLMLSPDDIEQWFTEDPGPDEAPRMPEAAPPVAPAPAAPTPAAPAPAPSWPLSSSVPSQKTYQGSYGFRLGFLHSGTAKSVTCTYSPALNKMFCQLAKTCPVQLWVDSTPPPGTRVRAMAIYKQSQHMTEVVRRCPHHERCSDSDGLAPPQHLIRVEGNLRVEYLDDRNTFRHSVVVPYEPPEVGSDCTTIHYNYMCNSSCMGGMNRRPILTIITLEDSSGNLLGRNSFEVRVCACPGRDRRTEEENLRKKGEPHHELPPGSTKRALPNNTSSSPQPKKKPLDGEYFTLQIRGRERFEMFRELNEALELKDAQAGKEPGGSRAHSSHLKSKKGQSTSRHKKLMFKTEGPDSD
# T1 sequence (Q00987 whole entry, looked up): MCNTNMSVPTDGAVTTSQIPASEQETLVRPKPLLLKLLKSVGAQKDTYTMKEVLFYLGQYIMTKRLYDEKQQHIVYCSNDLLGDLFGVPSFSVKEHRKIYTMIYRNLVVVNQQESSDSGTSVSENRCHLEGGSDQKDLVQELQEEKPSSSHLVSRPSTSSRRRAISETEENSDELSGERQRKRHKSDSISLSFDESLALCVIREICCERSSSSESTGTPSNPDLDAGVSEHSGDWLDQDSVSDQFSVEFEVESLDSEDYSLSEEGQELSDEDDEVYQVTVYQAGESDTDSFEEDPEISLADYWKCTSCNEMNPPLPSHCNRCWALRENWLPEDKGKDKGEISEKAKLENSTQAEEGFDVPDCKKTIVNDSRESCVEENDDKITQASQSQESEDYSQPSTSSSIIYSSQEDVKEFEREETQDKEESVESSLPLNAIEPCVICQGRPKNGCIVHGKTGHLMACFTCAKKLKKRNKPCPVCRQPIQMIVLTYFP
compound,measurement,setting,value
CCOC(=O)[C@@H]1CS[C@]2(N1)C(=O)N(C(=O)c1ccc(Cl)cc1)c1ccc(C)cc12,IC50,MCF7 [1],3.46 µM
same,IC50,HT-29,0.23 µM
CCOC(=O)[C@@H]1CS[C@@]2(C(=O)N(C)c3ccc(Br)cc32)N1C(=O)c1ccccc1,IC50,MCF7 [1],0.31 µM
same,IC50,HT-29,0.21 µM
CCOC(=O)[C@@H]1CS[C@]2(C(=O)Nc3ccc(Br)cc32)N1C(=O)c1ccc(Cl)cc1,IC50,MCF7 [1],3 µM
same,IC50,HT-29,2 µM
CCOC(=O)[C@@H]1CS[C@@]2(C(=O)Nc3ccc(C)cc32)N1C(=O)c1ccc(Cl)cc1,IC50,MCF7 [1],2.12 µM
same,IC50,HT-29,1.09 µM
CCOC(=O)[C@@H]1CS[C@@]2(C(=O)N(C)c3ccc(Br)cc32)N1C(=O)C1CCCCC1 (mixture of isomers),IC50,MCF7 [1],0.04 µM
same,Activity,MCF7 [2],tde
same,Activity,MCF7 [3],tde
same,Activity,MCF7 [4],Active
same,Ratio IC50,[5],18
same,Activity,MCF7 [6],Active
same,inhibition,[7],Active
same,inhibition,[8],inactive
same,Activity,MCF7 [9],Active
same,Activity,MCF7 [10],12%
same,Activity,MCF7 [11],inactive
same,Activity,MCF7 [12],tde
same,IC50,HT-29,0.07 µM
same,inhibition,[13],Active
same,Activity,MCF7 [14],inactive
same,Activity,MCF7 [15],tde
same,IC50,[16],0.1 µM
same,Activity,MCF7 [17],inactive
same,inhibition,[18],Active
same,Activity,MCF7 [19],inactive
same,Activity,MCF7 [20],inactive
same,IC50,[21],0.55 µM
same,IC50,[22],1.6 µM
same,Activity,MCF7 [23],Active
same,Activity,MCF7 [24],10%
same,IC50,PC-3,0.41 µM
same,Activity,MCF7 [25],inactive
same,IC50,U-937,0.07 µM
same,IC50,HepG2,0.14 µM
CCOC(=O)[C@@H]1CS[C@@]2(C(=O)N(C)c3ccccc32)N1C(=O)c1ccc(Cl)cc1,IC50,MCF7 [1],4.52 µM
same,IC50,HT-29,0.18 µM
COc1cccc2c1C(=O)c1c(O)c3c(c(O)c1C2=O)C[C@@](O)(C(=O)CO)C[C@@H]3O[C@H]1C[C@H](N)[C@H](O)[C@H](C)O1 [DOXORUBICIN],IC50,[16],1.81 µM
same,IC50,[22],0.5 µM
same,IC50,PC-3,0.75 µM
same,IC50,U-937,0.12 µM
same,IC50,HepG2,0.08 µM
CN1C(=O)[C@@]2(SC[C@@H](C(=O)O)N2C(=O)C2CCCCC2)c2cc(Br)ccc21 (mixture of isomers),IC50,MCF7 [1],2.01 µM
same,IC50,HT-29,1.9 µM
CCOC(=O)C1=N[C@@]2(SC1)C(=O)N(C(=O)C1CCCCC1)c1ccc(Br)cc12,IC50,HT-29,0.85 µM
CCOC(=O)[C@@H]1CS[C@@]2(C(=O)N(C)c3ccc(C)cc32)N1C(=O)C1CCCCC1 (mixture of isomers),IC50,MCF7 [1],1.2 µM
same,IC50,HT-29,1.1 µM
CCOC(=O)[C@@H]1CS[C@@]2(C(=O)N(C)c3ccccc32)N1C(=O)C1CCCCC1 (mixture of isomers),IC50,MCF7 [1],2.3 µM
same,IC50,HT-29,1.9 µM
CCOC(=O)[C@@H]1CS[C@@]2(C(=O)Nc3ccccc32)N1C(=O)Cc1ccc(Cl)cc1,IC50,MCF7 [1],> 5 µM
same,IC50,HT-29,1 µM
CCOC(=O)[C@@H]1CS[C@@]2(C(=O)Nc3ccc(Br)cc32)N1C(=O)Cc1ccc(Cl)cc1,IC50,MCF7 [1],2.9 µM
same,IC50,HT-29,0.66 µM
CCOC(=O)[C@@H]1CS[C@@]2(C(=O)Nc3ccc(C)cc32)N1C(=O)Cc1ccc(Cl)cc1,IC50,MCF7 [1],4.81 µM
same,IC50,HT-29,0.78 µM
CCOC(=O)[C@@H]1CS[C@]2(N1)C(=O)N(C(=O)c1ccc(Cl)cc1)c1ccccc12,IC50,MCF7 [1],1.01 µM
same,IC50,HT-29,1.03 µM
CCOC(=O)[C@@H]1CS[C@]2(N1)C(=O)N(C(=O)C1CCCCC1)c1ccc(Br)cc12,IC50,HT-29,1.4 µM
CCOC(=O)[C@@H]1CS[C@@]2(C(=O)Nc3ccccc32)N1C(=O)c1ccc(Cl)cc1,IC50,MCF7 [1],2.15 µM
same,IC50,HT-29,3.69 µM
"CCOC(=O)C1=N[C@@]2(SC1)C(=O)N(C(=O)c1ccc(Cl)cc1)c1ccc(Br)cc12 (single isomer, unassigned)",IC50,MCF7 [1],0.86 µM
same,IC50,HT-29,0.2 µM
CCOC(=O)[C@@H]1CS[C@@]2(C(=O)N(C)c3ccc(C)cc32)N1C(=O)c1ccc(Cl)cc1,IC50,MCF7 [1],1.23 µM
same,IC50,HT-29,0.12 µM
CCOC(=O)[C@@H]1CS[C@@]2(C(=O)Nc3ccc(Br)cc32)N1C(=O)C1CCCCC1 (mixture of isomers),IC50,MCF7 [1],0.22 µM
same,IC50,HT-29,0.56 µM
CCOC(=O)[C@@H]1CS[C@@]2(C(=O)N(C)c3ccc(Br)cc32)N1C(=O)c1ccc(C)cc1,IC50,MCF7 [1],0.06 µM
same,IC50,HT-29,0.09 µM
CCOC(=O)[C@@H]1CS[C@@]2(C(=O)N(C)c3ccc(Br)cc32)N1C(=O)c1ccc(Cl)cc1,IC50,MCF7 [1],0.52 µM
same,IC50,HT-29,0.08 µM
COc1ccc(C2=N[C@@H](c3ccc(Cl)cc3)[C@@H](c3ccc(Cl)cc3)N2C(=O)N2CCNC(=O)C2)c(OC(C)C)c1 (relative stereo) [NUTLIN-3],IC50,MCF7 [1],2.9 µM
same,IC50,[16],27.2 µM
same,IC50,[21],23 µM
same,IC50,[22],1.4 µM
same,IC50,PC-3,30.3 µM
same,IC50,U-937,15.6 µM
same,IC50,HepG2,10.2 µM
O=C1C2CSC3(C(=O)Nc4ccccc43)N2C(=O)N1Cc1ccc(Cl)cc1 (configuration not stated),IC50,MCF7 [1],1.21 µM
same,IC50,HT-29,1.6 µM
CCOC(=O)[C@@H]1CS[C@@]2(C(=O)Nc3ccc(Br)cc32)N1C(=O)c1ccc(Cl)cc1,IC50,MCF7 [1],0.9 µM
same,IC50,HT-29,0.11 µM
CCOC(=O)[C@@H]1CS[C@]2(N1)C(=O)N(C(=O)c1ccc(Cl)cc1)c1ccc(Br)cc12,IC50,MCF7 [1],0.15 µM
same,IC50,HT-29,0.02 µM
CCOC(=O)[C@@H]1CS[C@@]2(C(=O)N(C)c3ccc(Br)cc32)N1C(=O)Cc1ccc(Cl)cc1,IC50,MCF7 [1],0.27 µM
same,IC50,HT-29,0.36 µM
